Assay results reported in ChEMBL document CHEMBL1201862, “PubChem BioAssay data set” (2004).
Activity calls are given as the source filed them.

What was measured:
[1] = M. tuberculosis growth inhibition, HTS (AID 449762); format: functional
[2] = A High Throughput Confirmatory Assay used to Identify Novel Compounds that Inhibit Mycobacterium Tuberculosis in the absence of Glycerol.; format: functional
Leucine aminopeptidase = target: T1, Leucine aminopeptidase (Plasmodium falciparum 3D7, UniProt Q8IL11); assay: P. falciparum M17LAP inhibitors, primary screen, biochemical, fluorogenic H-Leu-NHMec substrate, 1536-well (AID 1619); format: functional
T1 sequence (Q8IL11 whole entry): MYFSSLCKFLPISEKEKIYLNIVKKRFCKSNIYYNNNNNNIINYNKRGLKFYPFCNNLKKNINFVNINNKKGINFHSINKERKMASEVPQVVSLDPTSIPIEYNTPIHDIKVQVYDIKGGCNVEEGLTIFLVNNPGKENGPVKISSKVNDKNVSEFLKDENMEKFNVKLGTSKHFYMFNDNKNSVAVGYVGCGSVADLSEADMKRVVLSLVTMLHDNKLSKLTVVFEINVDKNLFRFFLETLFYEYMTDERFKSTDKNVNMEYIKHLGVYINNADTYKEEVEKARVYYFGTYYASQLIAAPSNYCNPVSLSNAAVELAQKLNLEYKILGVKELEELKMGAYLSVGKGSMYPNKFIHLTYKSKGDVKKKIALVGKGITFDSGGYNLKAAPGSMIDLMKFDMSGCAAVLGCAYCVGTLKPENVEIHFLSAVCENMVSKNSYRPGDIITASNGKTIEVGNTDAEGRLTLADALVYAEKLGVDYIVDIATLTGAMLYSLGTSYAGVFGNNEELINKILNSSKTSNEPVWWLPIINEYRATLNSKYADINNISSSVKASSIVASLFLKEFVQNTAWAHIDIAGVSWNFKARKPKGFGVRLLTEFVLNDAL

[3] = target: T2, Replicative DNA helicase DnaB (Mycobacterium tuberculosis, UniProt P9WMR3); assay: DnaB intein splicing inhibitors, dose response, biochemical, cell-free fluorescence (AID 449749); format: functional
T2 sequence (P9WMR3 whole entry): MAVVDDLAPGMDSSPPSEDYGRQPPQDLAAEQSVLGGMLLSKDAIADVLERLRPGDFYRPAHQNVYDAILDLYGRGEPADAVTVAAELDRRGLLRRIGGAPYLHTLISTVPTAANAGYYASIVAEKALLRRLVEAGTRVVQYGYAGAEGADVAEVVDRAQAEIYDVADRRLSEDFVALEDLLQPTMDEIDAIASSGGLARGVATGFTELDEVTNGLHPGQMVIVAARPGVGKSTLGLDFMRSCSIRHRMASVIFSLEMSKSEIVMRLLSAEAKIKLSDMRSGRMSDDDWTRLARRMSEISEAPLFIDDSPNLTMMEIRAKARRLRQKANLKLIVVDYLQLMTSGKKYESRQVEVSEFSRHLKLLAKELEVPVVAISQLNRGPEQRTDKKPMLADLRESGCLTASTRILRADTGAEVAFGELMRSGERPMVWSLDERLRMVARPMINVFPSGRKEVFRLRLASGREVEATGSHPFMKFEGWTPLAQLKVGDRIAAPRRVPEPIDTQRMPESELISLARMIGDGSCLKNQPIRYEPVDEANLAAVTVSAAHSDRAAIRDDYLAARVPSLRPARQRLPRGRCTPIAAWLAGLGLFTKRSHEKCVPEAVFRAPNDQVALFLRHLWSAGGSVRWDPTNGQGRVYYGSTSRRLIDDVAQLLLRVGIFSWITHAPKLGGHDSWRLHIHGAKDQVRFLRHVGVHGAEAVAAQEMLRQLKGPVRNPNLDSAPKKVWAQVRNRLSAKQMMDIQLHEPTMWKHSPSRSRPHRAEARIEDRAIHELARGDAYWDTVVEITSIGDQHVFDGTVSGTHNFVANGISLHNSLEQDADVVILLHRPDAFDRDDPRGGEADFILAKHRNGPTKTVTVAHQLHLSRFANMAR

Procathepsin L = Procathepsin L (Homo sapiens, UniProt P07711); assay: cathepsin L inhibitors, dose response, counter-screen for M1/M17 aminopeptidase inhibitor project, biochemical, QFRET, 1536-well (AID 2214)
Protein RecA = target: T3, Protein RecA (Mycobacterium tuberculosis, UniProt P9WHJ3); assay: Fluorescence Cell-Free Homogeneous Dose Retest to Identify Inhibitors of RecA-Intein Splicing Activity. [Related pubchem assays (depositor defined):AID2097, AID2223, AID489010, AID492950]; format: functional
T3 sequence (P9WHJ3 whole entry): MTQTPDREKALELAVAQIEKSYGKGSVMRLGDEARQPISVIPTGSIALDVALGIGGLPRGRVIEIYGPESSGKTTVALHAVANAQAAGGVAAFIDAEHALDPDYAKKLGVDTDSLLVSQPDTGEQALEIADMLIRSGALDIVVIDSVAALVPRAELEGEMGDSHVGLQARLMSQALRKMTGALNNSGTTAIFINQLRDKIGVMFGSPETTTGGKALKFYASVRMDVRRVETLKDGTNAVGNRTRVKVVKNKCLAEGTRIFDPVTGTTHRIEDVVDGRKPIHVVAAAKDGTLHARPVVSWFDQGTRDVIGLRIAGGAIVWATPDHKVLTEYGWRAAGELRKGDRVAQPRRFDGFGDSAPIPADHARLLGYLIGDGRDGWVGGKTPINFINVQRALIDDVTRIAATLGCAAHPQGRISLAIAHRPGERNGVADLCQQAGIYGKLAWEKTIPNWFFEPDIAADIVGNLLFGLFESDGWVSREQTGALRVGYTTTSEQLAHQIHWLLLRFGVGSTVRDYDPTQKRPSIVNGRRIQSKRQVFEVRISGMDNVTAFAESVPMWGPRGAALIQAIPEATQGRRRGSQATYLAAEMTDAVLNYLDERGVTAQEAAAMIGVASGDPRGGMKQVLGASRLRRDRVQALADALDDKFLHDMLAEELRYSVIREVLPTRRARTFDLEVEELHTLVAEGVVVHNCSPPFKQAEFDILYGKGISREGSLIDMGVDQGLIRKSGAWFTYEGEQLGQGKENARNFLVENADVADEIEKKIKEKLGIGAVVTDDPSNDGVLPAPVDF

Aspartyl aminopeptidase = Aspartyl aminopeptidase (Plasmodium falciparum 3D7, UniProt Q8I2J3); assay: Counterscreen for inhibitors of M1 and M17 aminopeptidases: QFRET-based biochemical high throughput dose response assay for inhibitors of the Plasmodium falciparum M18 Aspartyl Aminopeptidase (PFM18AAP). [Related PubChem assays: 1619 (Screening assay (M17LAP inhibitors).), 1445 (Screening assay (M1AAP inhibitors).)]
[4] = target: Voltage-gated inwardly rectifying potassium channel KCNH2 (Homo sapiens, UniProt Q12809); assay: hERG protection from proarrhythmic block, potency, dose response, cell-based, thallium flux (AID 2121); format: ADME
[5] = target: Serine/threonine-protein phosphatase (Homo sapiens, UniProt Q9BPW0); assay: PP5 phosphatase inhibitors, dose response, biochemical, fluorescence (AID 2395)
[6] = target: T4, Tyrosyl-DNA phosphodiesterase 2 (Homo sapiens, UniProt O95551); assay: human TDP2 enzyme inhibitors, dose response, biochemical, epi absorbance, IC50 (AID 743297)
T4 sequence (O95551 whole entry): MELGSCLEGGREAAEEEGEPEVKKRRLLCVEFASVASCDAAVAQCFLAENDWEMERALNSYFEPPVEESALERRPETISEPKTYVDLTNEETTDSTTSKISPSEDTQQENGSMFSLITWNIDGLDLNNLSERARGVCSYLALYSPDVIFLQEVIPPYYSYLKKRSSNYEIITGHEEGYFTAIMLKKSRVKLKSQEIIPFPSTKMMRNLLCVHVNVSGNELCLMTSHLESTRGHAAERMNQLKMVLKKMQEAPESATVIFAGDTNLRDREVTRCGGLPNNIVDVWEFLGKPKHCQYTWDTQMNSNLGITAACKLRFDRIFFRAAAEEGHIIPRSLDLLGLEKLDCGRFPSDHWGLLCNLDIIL

Caspase-6 = target: T5, Caspase-6 (Homo sapiens, UniProt P55212); assay: human caspase-6 inhibitors, dose response, biochemical, VEID-R110 fluorescence, cherry-pick (AID 720632)
T5 sequence (P55212 whole entry): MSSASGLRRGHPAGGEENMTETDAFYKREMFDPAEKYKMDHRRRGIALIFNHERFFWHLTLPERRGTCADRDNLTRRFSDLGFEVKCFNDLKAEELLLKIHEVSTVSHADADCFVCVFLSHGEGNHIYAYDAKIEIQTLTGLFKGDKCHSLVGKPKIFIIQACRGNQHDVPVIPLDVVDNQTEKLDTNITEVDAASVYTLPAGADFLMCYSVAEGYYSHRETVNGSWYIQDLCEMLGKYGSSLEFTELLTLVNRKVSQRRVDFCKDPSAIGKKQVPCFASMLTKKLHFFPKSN

[7] = target: Serine/threonine-protein phosphatase PP1-alpha catalytic subunit (Homo sapiens, UniProt P62136); assay: PP1 phosphatase inhibitors, dose response, biochemical, fluorescence (AID 2394)
[8] = target: Complement C1s subcomponent (Homo sapiens, UniProt P09871); assay: Complement C1s ELISA. [Related pubchem assays: 538, 787 ]; format: functional
[9] = test system: Streptococcus sp. 'group A'; assay: growth inhibition of control SK(-) GAS strain, dose response, counter-screen for streptokinase expression inhibitor project, luminescence, kanamycin, BacTiterGlo, confirmation (AID 1900); format: functional, organism-based
[10] = target: T6, RNA-binding protein pos-1 (Caenorhabditis elegans, UniProt G5EF15); assay: inhibitors of POS-1/mex-3 RNA binding, dose response, biochemical, fluorescence polarization (AID 1964);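 note: purified POS-1 fused to maltose binding protein made in E. coli; potency of compounds blocking POS-1 binding to fluorescent RNA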
T6 sequence (G5EF15 whole entry): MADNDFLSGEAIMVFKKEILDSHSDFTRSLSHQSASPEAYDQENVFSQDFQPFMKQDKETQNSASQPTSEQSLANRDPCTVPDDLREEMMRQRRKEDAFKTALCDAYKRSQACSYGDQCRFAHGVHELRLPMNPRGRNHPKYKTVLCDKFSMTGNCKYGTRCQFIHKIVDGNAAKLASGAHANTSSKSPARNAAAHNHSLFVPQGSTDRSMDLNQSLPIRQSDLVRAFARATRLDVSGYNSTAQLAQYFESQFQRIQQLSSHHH

[11] = target: T7, Zinc finger protein mex-5 (Caenorhabditis elegans, UniProt Q9XUB2); assay: MEX-5/TCR-2 RNA interaction inhibitors, dose response, biochemical, C. elegans, fluorescence polarization (AID 1960)
T7 sequence (Q9XUB2 whole entry): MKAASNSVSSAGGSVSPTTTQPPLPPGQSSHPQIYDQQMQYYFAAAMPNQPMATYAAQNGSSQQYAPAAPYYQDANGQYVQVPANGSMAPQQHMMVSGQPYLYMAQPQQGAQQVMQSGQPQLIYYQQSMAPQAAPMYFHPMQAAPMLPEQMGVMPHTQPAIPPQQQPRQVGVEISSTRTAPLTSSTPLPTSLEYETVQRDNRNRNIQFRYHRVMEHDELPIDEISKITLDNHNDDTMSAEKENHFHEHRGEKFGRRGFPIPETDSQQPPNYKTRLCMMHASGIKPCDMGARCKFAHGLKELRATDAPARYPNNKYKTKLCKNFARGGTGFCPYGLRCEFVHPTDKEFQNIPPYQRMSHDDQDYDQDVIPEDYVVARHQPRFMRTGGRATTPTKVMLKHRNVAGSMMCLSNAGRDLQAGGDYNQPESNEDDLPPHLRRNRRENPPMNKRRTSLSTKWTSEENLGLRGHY

[12] = target: Heat shock protein HSP 90-alpha (Homo sapiens, UniProt P07900); format: functional, organism-based
Streptococcus = assay: Group A Streptococcus viability loss, dose response, counter-screen for streptokinase expression inhibitor project, luminescence, BacTiterGlo (AID 1915); format: functional, organism-based;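 note: potency for reduction of bacterial viability or growth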
Streptokinase A = target: T8, Streptokinase A (Streptococcus pyogenes serotype M1, UniProt P10520); assay: S. pyogenes streptokinase expression inhibitors, potency, dose response, plasminogen activation absorbance, OD405 (AID 1914); format: functional, Streptococcus pyogenes M1 GAS;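 note: secreted streptokinase activity via plasminogen activation per viability signal from cell pellet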
T8 sequence (P10520 whole entry): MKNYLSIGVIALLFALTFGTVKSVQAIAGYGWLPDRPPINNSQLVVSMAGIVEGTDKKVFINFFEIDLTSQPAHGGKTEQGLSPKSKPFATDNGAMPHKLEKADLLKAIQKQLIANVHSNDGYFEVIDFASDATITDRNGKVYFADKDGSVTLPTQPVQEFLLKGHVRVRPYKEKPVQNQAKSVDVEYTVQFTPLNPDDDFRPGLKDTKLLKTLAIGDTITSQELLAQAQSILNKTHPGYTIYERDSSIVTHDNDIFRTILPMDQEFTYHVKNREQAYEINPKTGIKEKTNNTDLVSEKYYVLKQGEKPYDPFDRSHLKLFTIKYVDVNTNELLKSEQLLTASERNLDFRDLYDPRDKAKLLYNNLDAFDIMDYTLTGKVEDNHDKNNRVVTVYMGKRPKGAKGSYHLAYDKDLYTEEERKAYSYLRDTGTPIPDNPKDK

14-3-3 protein gamma = 14-3-3 protein gamma (Homo sapiens, UniProt P61981); assay: modulators of 14-3-3 gamma client binding – dose response (AID 711); format: functional
[13] = target: T9, Sphingosine 1-phosphate receptor 2 (Homo sapiens, UniProt O95136); assay: Dose Response Cell Based Assay for Agonists of the S1P2 Receptor of Purchased Analogues. [Related pubchem assays: 729, 843, 854, 736 ]; format: functional
[14] = target: T9, Sphingosine 1-phosphate receptor 2; assay: Dose Response Cell Based Assay for Agonists of the S1P2 Receptor. [Related pubchem assays: 729, 736, 843 ]; format: functional

T9 sequence (O95136 whole entry): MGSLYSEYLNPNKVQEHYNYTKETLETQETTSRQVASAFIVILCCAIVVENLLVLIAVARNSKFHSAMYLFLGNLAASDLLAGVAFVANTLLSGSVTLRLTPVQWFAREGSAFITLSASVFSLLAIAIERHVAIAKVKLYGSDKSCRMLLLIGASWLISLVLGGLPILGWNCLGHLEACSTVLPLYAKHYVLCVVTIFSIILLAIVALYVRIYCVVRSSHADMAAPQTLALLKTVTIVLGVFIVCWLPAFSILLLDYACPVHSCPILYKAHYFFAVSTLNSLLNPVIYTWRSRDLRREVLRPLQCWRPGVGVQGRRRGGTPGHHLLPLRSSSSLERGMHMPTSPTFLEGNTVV
Procathepsin L, sequence (P07711 whole entry): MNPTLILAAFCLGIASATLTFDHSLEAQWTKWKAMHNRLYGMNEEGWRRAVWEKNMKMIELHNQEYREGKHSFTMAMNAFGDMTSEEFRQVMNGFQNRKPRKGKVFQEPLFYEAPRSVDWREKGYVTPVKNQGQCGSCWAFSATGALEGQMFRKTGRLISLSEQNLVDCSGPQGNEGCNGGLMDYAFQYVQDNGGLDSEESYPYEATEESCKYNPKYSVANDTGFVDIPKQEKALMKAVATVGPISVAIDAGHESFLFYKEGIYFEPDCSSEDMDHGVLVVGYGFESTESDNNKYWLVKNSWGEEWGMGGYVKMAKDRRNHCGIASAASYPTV
Serine/threonine-protein phosphatase, sequence (Q9BPW0 whole entry): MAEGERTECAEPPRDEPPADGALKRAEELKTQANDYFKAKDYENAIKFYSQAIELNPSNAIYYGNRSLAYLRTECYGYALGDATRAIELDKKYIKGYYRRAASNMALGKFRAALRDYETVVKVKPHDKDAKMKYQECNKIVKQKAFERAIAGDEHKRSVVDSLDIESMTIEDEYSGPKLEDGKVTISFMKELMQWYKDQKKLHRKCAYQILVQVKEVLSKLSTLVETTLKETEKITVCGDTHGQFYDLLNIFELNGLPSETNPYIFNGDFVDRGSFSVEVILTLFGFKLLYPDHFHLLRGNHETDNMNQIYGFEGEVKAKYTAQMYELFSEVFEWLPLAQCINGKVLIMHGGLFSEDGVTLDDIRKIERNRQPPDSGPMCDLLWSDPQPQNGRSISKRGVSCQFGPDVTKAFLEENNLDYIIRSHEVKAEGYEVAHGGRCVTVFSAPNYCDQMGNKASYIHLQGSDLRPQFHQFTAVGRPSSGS
Aspartyl aminopeptidase, sequence (Q8I2J3 whole entry): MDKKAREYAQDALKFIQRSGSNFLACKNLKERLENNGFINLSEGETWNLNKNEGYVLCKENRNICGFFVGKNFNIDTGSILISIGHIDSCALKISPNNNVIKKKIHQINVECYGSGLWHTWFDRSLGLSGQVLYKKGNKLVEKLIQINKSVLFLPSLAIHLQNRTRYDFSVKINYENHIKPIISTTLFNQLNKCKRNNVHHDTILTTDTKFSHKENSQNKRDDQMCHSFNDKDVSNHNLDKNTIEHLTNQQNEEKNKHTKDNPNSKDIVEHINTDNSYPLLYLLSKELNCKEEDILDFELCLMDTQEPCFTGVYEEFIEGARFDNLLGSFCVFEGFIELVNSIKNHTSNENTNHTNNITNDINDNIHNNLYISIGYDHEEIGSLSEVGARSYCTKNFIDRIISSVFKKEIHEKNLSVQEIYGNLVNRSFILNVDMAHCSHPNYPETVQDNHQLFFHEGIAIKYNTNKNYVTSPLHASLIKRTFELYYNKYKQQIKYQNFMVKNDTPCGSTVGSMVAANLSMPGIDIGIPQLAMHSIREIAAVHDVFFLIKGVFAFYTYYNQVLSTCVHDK
Serine/threonine-protein phosphatase PP1-alpha catalytic subunit, sequence (P62136 whole entry): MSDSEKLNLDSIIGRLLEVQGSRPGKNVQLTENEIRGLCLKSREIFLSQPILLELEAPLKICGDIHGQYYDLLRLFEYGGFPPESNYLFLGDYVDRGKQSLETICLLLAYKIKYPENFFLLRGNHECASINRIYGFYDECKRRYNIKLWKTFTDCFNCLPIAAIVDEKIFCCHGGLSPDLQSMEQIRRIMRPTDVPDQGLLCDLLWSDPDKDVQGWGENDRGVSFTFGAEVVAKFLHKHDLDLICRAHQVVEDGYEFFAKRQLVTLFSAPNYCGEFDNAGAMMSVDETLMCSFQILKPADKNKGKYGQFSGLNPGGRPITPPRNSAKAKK
Voltage-gated inwardly rectifying potassium channel KCNH2, sequence (Q12809 whole entry): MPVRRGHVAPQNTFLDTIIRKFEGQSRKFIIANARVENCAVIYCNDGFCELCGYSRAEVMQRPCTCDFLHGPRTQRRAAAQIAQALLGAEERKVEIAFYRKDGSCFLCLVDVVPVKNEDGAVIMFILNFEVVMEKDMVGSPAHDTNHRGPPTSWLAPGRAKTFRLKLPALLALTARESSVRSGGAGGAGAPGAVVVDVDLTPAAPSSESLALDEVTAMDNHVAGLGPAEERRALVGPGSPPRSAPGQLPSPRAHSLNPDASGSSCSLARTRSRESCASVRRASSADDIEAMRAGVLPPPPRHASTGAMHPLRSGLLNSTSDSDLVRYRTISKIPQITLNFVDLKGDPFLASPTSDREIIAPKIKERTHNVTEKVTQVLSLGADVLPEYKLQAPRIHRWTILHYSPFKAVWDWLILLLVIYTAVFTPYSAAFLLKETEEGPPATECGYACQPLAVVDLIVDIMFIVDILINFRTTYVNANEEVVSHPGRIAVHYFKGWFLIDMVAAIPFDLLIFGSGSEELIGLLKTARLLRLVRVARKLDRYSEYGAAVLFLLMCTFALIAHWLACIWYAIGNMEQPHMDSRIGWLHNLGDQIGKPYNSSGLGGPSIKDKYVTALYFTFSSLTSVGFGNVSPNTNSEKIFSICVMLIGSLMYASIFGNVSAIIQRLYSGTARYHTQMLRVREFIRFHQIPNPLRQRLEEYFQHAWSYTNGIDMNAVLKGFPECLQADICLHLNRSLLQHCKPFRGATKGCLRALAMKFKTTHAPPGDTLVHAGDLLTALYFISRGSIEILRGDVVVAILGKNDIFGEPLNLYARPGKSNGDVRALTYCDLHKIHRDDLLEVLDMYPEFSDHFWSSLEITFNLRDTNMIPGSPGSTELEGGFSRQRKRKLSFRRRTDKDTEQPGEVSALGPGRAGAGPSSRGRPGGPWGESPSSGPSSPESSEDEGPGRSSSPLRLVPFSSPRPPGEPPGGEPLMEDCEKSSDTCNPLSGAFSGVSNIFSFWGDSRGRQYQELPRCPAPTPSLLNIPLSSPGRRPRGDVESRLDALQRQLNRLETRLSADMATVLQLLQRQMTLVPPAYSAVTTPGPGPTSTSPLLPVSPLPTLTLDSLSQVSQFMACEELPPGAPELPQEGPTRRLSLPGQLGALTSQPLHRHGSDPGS
Complement C1s subcomponent, sequence (P09871 16-437 limits assumed): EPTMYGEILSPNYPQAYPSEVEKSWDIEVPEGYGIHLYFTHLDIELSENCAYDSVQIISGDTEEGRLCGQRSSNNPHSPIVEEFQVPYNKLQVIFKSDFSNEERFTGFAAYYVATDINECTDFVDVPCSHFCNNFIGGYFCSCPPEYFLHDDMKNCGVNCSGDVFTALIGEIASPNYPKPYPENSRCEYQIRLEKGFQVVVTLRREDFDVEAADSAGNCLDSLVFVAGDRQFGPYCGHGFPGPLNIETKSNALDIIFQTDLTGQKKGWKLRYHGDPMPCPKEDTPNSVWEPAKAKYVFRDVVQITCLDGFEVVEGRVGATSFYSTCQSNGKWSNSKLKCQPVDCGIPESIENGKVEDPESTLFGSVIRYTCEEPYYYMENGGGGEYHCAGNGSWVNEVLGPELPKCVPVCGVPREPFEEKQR
Complement C1s subcomponent, sequence (P09871 438-688 limits assumed): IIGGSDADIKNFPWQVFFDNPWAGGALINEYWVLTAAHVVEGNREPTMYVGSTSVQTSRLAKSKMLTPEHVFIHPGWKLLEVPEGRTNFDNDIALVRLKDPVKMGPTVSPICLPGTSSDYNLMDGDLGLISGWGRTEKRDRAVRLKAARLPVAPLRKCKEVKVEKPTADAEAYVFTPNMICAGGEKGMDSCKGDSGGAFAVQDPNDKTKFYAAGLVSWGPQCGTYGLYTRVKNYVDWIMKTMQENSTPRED
14-3-3 protein gamma, sequence (P61981 whole entry): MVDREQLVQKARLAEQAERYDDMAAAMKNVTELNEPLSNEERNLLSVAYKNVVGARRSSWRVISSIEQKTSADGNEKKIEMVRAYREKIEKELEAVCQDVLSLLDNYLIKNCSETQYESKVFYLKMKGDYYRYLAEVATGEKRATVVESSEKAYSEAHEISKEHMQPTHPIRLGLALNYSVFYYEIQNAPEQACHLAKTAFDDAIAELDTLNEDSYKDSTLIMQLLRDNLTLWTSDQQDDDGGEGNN

Cc1nc2ccc(NC(=O)N(C(C)C)C(C)C)cc2s1
IC50 [1]: > 100 µM (active)

Cc1nnc(SCc2ccccc2Cl)n(N)c1=O
IC50 [2]: > 100 µM (active)

Cc1ccc(SCC2=NNC(=O)C2)cc1
IC50 (Leucine aminopeptidase): 1.77 µM (active)
AC50 [3]: 3.72 µM (active)
IC50 (Procathepsin L): > 59.6 µM (not active)
EC50 (Protein RecA): 1.01 µM (active)
IC50 (Aspartyl aminopeptidase): > 73.5 µM (not active)

CCN=C(S)N=NC1=C(O)c2cccc3cccc1c23
EC50 [4]: 0.26 µM (active)

Oc1nc(Nc2ccccc2)cc2cc(Br)ccc12
IC50 [5]: > 67 µM (not active)
AC50 [3]: > 120 µM (inactive)
IC50 [6]: 32.2 µM (inactive)
EC50 (Protein RecA): 7 µM (active)
AC50 (Caspase-6): 6.04 µM (active)
IC50 [7]: 46.9 µM (not active)

O=c1oc(-c2ccco2)nc2ccccc12
IC50 [8]: > 50 µM (not active)

Nc1nonc1C(=O)NCC/N=C/c1cc(Cc2ccccc2)cc(Br)c1O
EC50 [9]: 5.35 µM (active)
EC50 [10]: > 300 µM (not active)
EC50 [11]: > 300 µM (not active)
AC50 [12]: 1.24 µM (active)
EC50 (Streptococcus): 9.66 µM (active)
EC50 (Streptokinase A): > 150 µM (not active)
IC50 (14-3-3 protein gamma): > 50 µM (not active)

Cc1cc(C(=O)CN2C(=O)CCC2=O)c(C)n1Cc1ccccc1
EC50 [13]: 1.2 µM (active)
EC50 [14]: 2.85 µM (active)
